This passage reports IC50 results from patent US10144734B2, “Substituted pyrazolo[1,5-A]pyridine compounds as RET kinase inhibitors” (Array BioPharma, Inc., priority 2016, dated 2018).

This assay addresses HEK-293 cells expressing a Kif5b-RET fusion protein (Homo sapiens, UniProt P07949). Nature of the assay: cell-based.

pIC50: −log10 of the molar value.

HEK-293 cells expressing a Kif5b-RET fusion protein, sequence (P07949 29-1114 limits assumed): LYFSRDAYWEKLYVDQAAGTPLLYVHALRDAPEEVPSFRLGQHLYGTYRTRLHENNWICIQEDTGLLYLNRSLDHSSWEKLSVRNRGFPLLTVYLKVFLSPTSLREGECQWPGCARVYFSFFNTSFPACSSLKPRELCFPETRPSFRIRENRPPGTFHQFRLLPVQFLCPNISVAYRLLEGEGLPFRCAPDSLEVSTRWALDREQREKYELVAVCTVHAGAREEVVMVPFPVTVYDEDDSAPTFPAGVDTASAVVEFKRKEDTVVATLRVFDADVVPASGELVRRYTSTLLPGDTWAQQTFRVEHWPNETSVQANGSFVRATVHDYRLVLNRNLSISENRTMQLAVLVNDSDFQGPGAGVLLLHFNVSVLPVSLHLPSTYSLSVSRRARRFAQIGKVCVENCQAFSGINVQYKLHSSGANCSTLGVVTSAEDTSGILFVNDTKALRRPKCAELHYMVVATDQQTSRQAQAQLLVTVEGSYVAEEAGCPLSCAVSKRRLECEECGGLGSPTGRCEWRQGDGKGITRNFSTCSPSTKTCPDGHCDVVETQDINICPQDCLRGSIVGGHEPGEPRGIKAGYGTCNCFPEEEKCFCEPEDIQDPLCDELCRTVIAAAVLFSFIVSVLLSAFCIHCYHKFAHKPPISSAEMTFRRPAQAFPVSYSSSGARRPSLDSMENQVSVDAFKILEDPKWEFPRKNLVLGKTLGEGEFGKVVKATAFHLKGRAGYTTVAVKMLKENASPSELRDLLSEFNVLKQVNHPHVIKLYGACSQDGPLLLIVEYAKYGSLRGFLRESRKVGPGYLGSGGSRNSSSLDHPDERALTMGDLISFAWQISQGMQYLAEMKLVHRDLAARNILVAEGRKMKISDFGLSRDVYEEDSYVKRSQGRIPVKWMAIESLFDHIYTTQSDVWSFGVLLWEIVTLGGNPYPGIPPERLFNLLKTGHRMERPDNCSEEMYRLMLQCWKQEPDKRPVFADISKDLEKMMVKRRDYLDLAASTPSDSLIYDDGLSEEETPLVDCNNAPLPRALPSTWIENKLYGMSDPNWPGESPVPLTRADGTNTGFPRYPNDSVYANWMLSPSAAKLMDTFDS

`CCOc1cc(-c2ccc(N3C[C@H]4C[C@@H](C3)[C@H]4Nc3nc(C)ccc3F)nc2)c2c(C#N)cnn2c1` [Example 377, 6-ethoxy-4-(6-((1R,5 S,6r)-6-((3-fluoro-6-methylpyridin-2-yl)amino)-3-azabicyclo[3.1.1]heptan-3-yl)pyridin-3-yl)pyrazolo[1,5-a]pyridine-3-carbonitrile]: the pIC50 – broadly, the negative decadic logarithm of the IC50, by convention in mol/L – was 7.40.
